Counter-ions that a name gives are not always drawn.
How the values were obtained:
[1] = test system: serotonin; assay: Rat Allergic Mediator Induced Dermal Vascular Permeability Test, serotonin challenge; type: in vivo
Experimental: (§1) Ten minutes later, the animals are challenged by intradermally injecting 0.1 ml of a water solution of either serotonin (1 μg/ml), histamine (20 μg/ml) or bradykinin (10 μg/ml) into separate sites on the back. Five minutes following challenge the animals are killed, the skin retracted, and the mean diameter of the blue wheal and flare reaction is calculated as the difference in mean diameter between a saline control and the drug treated group, divided by the control diameter, and then multiplied times 100. Statistical analysis of the data is done using a Student T-test program. See Tables 4 (ip administration of test compound) and 5 (po administration of test compound) for results obtained with the rat allergic mediator induced dermal vascular permeability test. (Set: Serotonin; His: histamine; Bk: bradykinin)

[2] = test system: bradykinin; assay: Rat Allergic Mediator Induced Dermal Vascular Permeability Test, bradykinin challenge; type: in vivo
Experimental: as §1

[3] = test system: LTC4 induced contractions of the guinea pig ileum; assay: Guinea Pig Ileum Test: inhibition of LTC4-induced guinea pig smooth muscle contractions; type: cell-based; details: Cavia porcellus, 6 nanomoles LTC4
Experimental: Four replicate, small pieces of guinea pig ileum were suspended in Kreb's physiological salt solution in a 10 ml tissue bath to a gram tension of approximately 1.0. These pieces of tissue were then chemically stimulated with 6 microliters of purified leukotriene C4 (LTC4) yielding a final concentration in the bath of 6 nanomoles. Responses (tissue contraction) were measured isometrically using a Harvard transducer and a Beckman recorder. Upon addition of the LTC4, the tissue was allowed to sit for approximately 15-30 minutes to reach maximal stimulation. The test compound dissolved in a maximum volume of 100 microliters of either saline, dimethylsulfoxide or ethanol was then added to the tissue preparation and the change in gram tension was recorded.

[4] = test system: Active Anaphylaxis Response in Male, Sprague Dawley Rats; assay: Rat Anaphylaxis Test (active anaphylaxis, paw edema); type: in vivo; details: for Paw Volume Mean ± S.E.: in mmHg (unit assumed)
Experimental: In the rat anaphylaxis test, groups consisting of 15-20 rats are intraperitoneally sensitized on day zero with 500 μg of bovine serum albumin-absorbed alum admixed with 2×10^10 killed Bordatella pertussis vaccine organisms. Fourteen days later, the test compound suspended in 0.5 to 1.0 ml of 1% Cleargel or saline (0.85% NaCl in H2 O) is administered ip or po and, one hour later, the right hind paw is injected subcutaneously with 100 μg of bovine serum albumin dissolved in 0.1 ml of saline. The paw volume is measured using a mercury plethysmometer prior to drug administration and 90 minutes post antigenic challenge. The present inhibition of edema is calculated as the difference in volume between the control and drug treated groups, divided by the control volume, and then multiplied times 100. The positive control drug, theophylline (90 mg/kg, po) is included in each assay. Statistical analysis of the data is done using an analysis of variance program. See Tables 2 and 3 for results obtained with this test.
In Tables 2 and 3, and elsewhere in this application, PR 948-257C stands for trans-6-[2-(4-methoxyphenyl)ethenyl]-2-[3-(dimethylamino)propyl]-phthalazin-1(2H)-one hydrobromide.

[5] = test system: histamine; assay: Rat Allergic Mediator Induced Dermal Vascular Permeability Test, histamine challenge; type: in vivo
Experimental: as §1, with “See Tables 4 (ip administration of test compound) and 5 (po administration of test compound) for results obtained with the rat allergic mediator induced dermal vascular permeability test.” left out

[6] = Table 4 (ip administration of test compound), 1 mg/kg
[7] = Table 5 (po administration of test compound), 1 mg/kg
[8] = Table 2, first group set, 50 mg/kg ip
[9] = Table 2, first group set, 75 mg/kg ip
[10] = Table 2, first group set, 100 mg/kg ip
[11] = Table 2, second group set, 6.25 mg/kg ip
[12] = Table 2, second group set, 12.5 mg/kg ip
[13] = Table 2, second group set, 25 mg/kg ip
[14] = Table 2, third group set, 2.5 mg/kg ip
[15] = Table 2, third group set, 4 mg/kg ip
[16] = Table 2, third group set, 6 mg/kg ip
[17] = Table 2, first group set, 90 mg/kg po, N 17
[18] = Table 2, second group set, 90 mg/kg po, N 20
[19] = Table 2, third group set, 90 mg/kg po, N 29

`CN1CCC(=C2c3ccccc3C=Cc3ccccc32)CC1` [Cyproheptadine, cyproheptadine, reference compound] was tested, and the “% Inhibition, Ser” value [1, 6] was 74.8%, the “Wheal Measurement, Ser” value [1, 6] was 2.8 mm and the “% Inhibition, Ser” value [1, 7] was 95.1%. For the same molecule, the “Wheal Measurement, Ser” value [1, 7] was 0.5 mm, the “% Inhibition, Bk” value [2, 6] was 60.6% and the “Wheal Measurement, Bk” value [2, 6] was 4.3 mm. For the same molecule, the “% Inhibition, Bk” value [2, 7] was 86.8% and the “Wheal Measurement, Bk” value [2, 7] was 1.2 mm.
In the case of `COc1ccc(/C=C/c2ccc3c(=O)n(CCCN4CCCCC4)ncc3c2)cc1` [Example II, Trans-6-[2-(4-methoxyphenyl)ethenyl]-2-(3-piperidinopropyl)phthalazin-1(2H)-one hydrobromide], the IC50 [3] is reported as 3.4 µM.
In the case of `COc1ccc(/C=C/c2ccc3c(=O)n(CCN(C)C)ncc3c2)cc1` [Example III, Trans-6-[2-(4-methoxyphenyl)ethenyl]-2-[2-(dimethylamino)ethyl]-phthalazin-1(2H)-one hydrobromide], the IC50 [3] is reported as 16.6 µM.
Molecule `COc1ccc(/C=C/c2ccc3c(=O)n(CCN4CCOCC4)ncc3c2)cc1` [Example IV, Trans-6-[2-(4-methoxyphenyl)ethenyl]-2-(2-morpholinoethyl)phthalazin-1(2H)-one hydrobromide] has an IC50 [3] of 0.1 µM.
`COc1ccc(/C=C/c2ccc3c(=O)n(CCCCN(C)C)ncc3c2)cc1` [Example IX, Trans-6-[2-(4-methoxyphenyl)ethenyl]-2-[4-dimethylamino)butyl]phthalazin-1(2H)-one bromide] was tested, and the IC50 [3] was 10 µM.
Molecule `COc1ccc(CCc2ccc3c(=O)n(CCCN(C)C)ncc3c2)cc1` [Example VI, 6-[2-(4-methoxyphenyl)ethyl]-2-[3-(dimethylamino)propyl]phthalazin-1(2H)-on] has an IC50 [3] of 16.8 µM.
In the case of `COc1ccc(/C=C\c2ccc3c(=O)n(CCCN(C)C)ncc3c2)cc1` [Example X, Cis-6-[2-(4-methoxyphenyl)ethenyl]-2-[3-dimethylaminopropyl]phthalazin-1(2H)-one cyclohexylsulfamate], the IC50 [3] is reported as 10.5 µM.
With `CSc1ccc(/C=C/c2ccc3c(=O)n(CCCN(C)C)ncc3c2)cc1` [Example XI, Trans-6-[2-[4-(methylthio)phenyl]ethenyl]-2-[3-(dimethylamino)propyl]phthalazin-1(2H)-one] the IC50 [3] was 10 µM.
In the case of `Br.COc1ccc(/C=C/c2ccc3c(=O)n(CCCN(C)C)ncc3c2)cc1` [Example XII, Trans-6-[2-(4-methoxyphenyl)ethenyl]-2-[3-(dimethylamino)propyl]-phthalazin-1(2H)-one hydrobromide], the IC50 [3] is reported as 13.6 µM, the “% Inhibition” value [4, 8] is reported as 56% and the “Paw Volume Mean ± S.E.” value [4, 8] is reported as 1.7 ± 1.3. The “% Inhibition” value [4, 9] was 83%, the “Paw Volume Mean ± S.E.” value [4, 9] was 0.7 ± 0.8 and the “% Inhibition” value [4, 10] was 91%. For the same molecule, the “Paw Volume Mean ± S.E.” value [4, 10] was 0.4 ± 0.8, the “% Inhibition” value [4, 11] was 48% and the “Paw Volume Mean ± S.E.” value [4, 11] was 2.2 ± 1.9. For the same molecule, the “% Inhibition” value [4, 12] was 52%, the “Paw Volume Mean ± S.E.” value [4, 12] was 2.1 ± 1.8 and the “% Inhibition” value [4, 13] was 55%. For the same molecule, the “Paw Volume Mean ± S.E.” value [4, 13] was 1.9 ± 1.4, the “% Inhibition” value [4, 14] was “+11%” and the “Paw Volume Mean ± S.E.” value [4, 14] was 4.7 ± 2.8. For the same molecule, the “% Inhibition” value [4, 15] was “+14%”, the “Paw Volume Mean ± S.E.” value [4, 15] was 4.9 ± 2.3 and the “% Inhibition” value [4, 16] was 12%. For the same molecule, the “Paw Volume Mean ± S.E.” value [4, 16] was 3.7 ± 2.6, the “% Inhibition” value ([4]; Table 3, 50 mg/kg po) was 14% and the “Paw Volume ± S.E.” value ([4]; Table 3, 50 mg/kg po) was 3.10 ± .55 mm of Hg. The “% Inhibition” value ([4]; Table 3, 75 mg/kg po) was 37%, the “Paw Volume ± S.E.” value ([4]; Table 3, 75 mg/kg po) was 2.26 ± .32 mm of Hg and the “% Inhibition” value ([4]; Table 3, 100 mg/kg po) was 54%. For the same molecule, the “Paw Volume ± S.E.” value ([4]; Table 3, 100 mg/kg po) was 1.65 ± .36 mm of Hg, the “% Inhibition, Ser” value ([1]; Table 4, 12.5 mg/kg ip) was 26.1% and the “Wheal Measurement, Ser” value ([1]; Table 4, 12.5 mg/kg ip) was 8.2 mm. For the same molecule, the “% Inhibition, Ser” value ([1]; Table 4, 25 mg/kg ip) was 51.4%, the “Wheal Measurement, Ser” value ([1]; Table 4, 25 mg/kg ip) was 5.4 mm and the “% Inhibition, Ser” value ([1]; Table 4, 50 mg/kg ip) was 68.5%. For the same molecule, the “Wheal Measurement, Ser” value ([1]; Table 4, 50 mg/kg ip) was 3.5 mm, the “% Inhibition, Ser” value ([1]; Table 5, 12.5 mg/kg po) was 23.3% and the “Wheal Measurement, Ser” value ([1]; Table 5, 12.5 mg/kg po) was 7.9 mm. The “% Inhibition, Ser” value ([1]; Table 5, 25 mg/kg po) was 42.7%, the “Wheal Measurement, Ser” value ([1]; Table 5, 25 mg/kg po) was 5.9 mm and the “% Inhibition, Ser” value ([1]; Table 5, 50 mg/kg po) was 61.1%. For the same molecule, the “Wheal Measurement, Ser” value ([1]; Table 5, 50 mg/kg po) was 4.0 mm, the “% Inhibition, His” value ([5]; Table 4, 12.5 mg/kg ip) was 26.8% and the “Wheal Measurement, His” value ([5]; Table 4, 12.5 mg/kg ip) was 8.2 mm. For the same molecule, the “% Inhibition, His” value ([5]; Table 4, 25 mg/kg ip) was 50.0%, the “Wheal Measurement, His” value ([5]; Table 4, 25 mg/kg ip) was 5.6 mm and the “% Inhibition, His” value ([5]; Table 4, 50 mg/kg ip) was 75.9%. The “Wheal Measurement, His” value ([5]; Table 4, 50 mg/kg ip) was 2.7 mm, the “% Inhibition, His” value ([5]; Table 5, 12.5 mg/kg po) was 17% and the “Wheal Measurement, His” value ([5]; Table 5, 12.5 mg/kg po) was 8.3 mm. For the same molecule, the “% Inhibition, His” value ([5]; Table 5, 25 mg/kg po) was 57%, the “Wheal Measurement, His” value ([5]; Table 5, 25 mg/kg po) was 4.3 mm and the “% Inhibition, His” value ([5]; Table 5, 50 mg/kg po) was 71%. The “Wheal Measurement, His” value ([5]; Table 5, 50 mg/kg po) was 2.9 mm, the “% Inhibition, Bk” value ([2]; Table 4, 12.5 mg/kg ip) was 32.1% and the “Wheal Measurement, Bk” value ([2]; Table 4, 12.5 mg/kg ip) was 7.4 mm. The “% Inhibition, Bk” value ([2]; Table 4, 25 mg/kg ip) was 47.7%, the “Wheal Measurement, Bk” value ([2]; Table 4, 25 mg/kg ip) was 5.7 mm and the “% Inhibition, Bk” value ([2]; Table 4, 50 mg/kg ip) was 74.3%. For the same molecule, the “Wheal Measurement, Bk” value ([2]; Table 4, 50 mg/kg ip) was 2.8 mm, the “% Inhibition, Bk” value ([2]; Table 5, 12.5 mg/kg po) was 12.1% and the “Wheal Measurement, Bk” value ([2]; Table 5, 12.5 mg/kg po) was 8.0 mm. For the same molecule, the “% Inhibition, Bk” value ([2]; Table 5, 25 mg/kg po) was 48.4%, the “Wheal Measurement, Bk” value ([2]; Table 5, 25 mg/kg po) was 4.7 mm and the “% Inhibition, Bk” value ([2]; Table 5, 50 mg/kg po) was 63.8%. For the same molecule, the “Wheal Measurement, Bk” value ([2]; Table 5, 50 mg/kg po) was 3.3 mm.
`CN(C)CCn1ncc2cc(/C=C/c3ccc(O)cc3)ccc2c1=O` [Example XIV, Trans-6-[2-(4-Hydroxyphenyl)ethenyl]-2-(2-dimethylaminoethyl)-1(2H)-phthalazinone hydrochloride] was tested, and the IC50 [3] was 31.6 µM.
For `Cn1c(=O)c2[nH]cnc2n(C)c1=O` [Theophylline, theophylline, reference compound], the “% Inhibition” value [4, 17] was 76%, the “Paw Volume Mean ± S.E.” value [4, 17] was 0.9 ± 0.7 and the “% Inhibition” value [4, 18] was 92%. The “Paw Volume Mean ± S.E.” value [4, 18] was 0.4 ± 0.6, the “% Inhibition” value [4, 19] was 87% and the “Paw Volume Mean ± S.E.” value [4, 19] was 0.5 ± 0.5. The “% Inhibition” value ([4]; Table 3, 90 mg/kg po) was 82% and the “Paw Volume ± S.E.” value ([4]; Table 3, 90 mg/kg po) was 0.65 ± .2 mm of Hg.

Source: patent US4769369A, “Anti-allergy 1(2H)-phthalazinones” (Pennwalt Corporation, priority 1986, dated 1988)
